Laboratory results as given in the NIST ThermoML archive (doi:10.1021/je500153g).

How the values were obtained:
[1] = 101 kPa, Liquid; for viscosity: Concentric cylinders viscometry; for mass density: Vibrating tube method
[2] = xn = mol fraction of the nth substance listed; conditions: 101 kPa, Liquid; for viscosity: Concentric cylinders viscometry; for mass density: Vibrating tube method

CCC(C)O (stereo not given) [butan-2-ol]
[1]
Conditions	mass density [kg/m3]	viscosity [mPa·s]
303.15 K	799.3	2.51
313.15 K	790.7	1.78
323.15 K	781.7	1.31
333.15 K	772.1	0.99
343.15 K	762	0.78

CCC(C)O (stereo not given) [butan-2-ol] + O=S1(=O)CCCC1
[2], x2 = 0
Conditions	mass density [kg/m3]	viscosity [mPa·s]
303.15 K	799.3	2.51
313.15 K	790.7	1.78
323.15 K	781.7	1.31
333.15 K	772.1	0.99
343.15 K	762	0.78

OCCOCCO [diethylene glycol]
[1]
Conditions	mass density [kg/m3]	viscosity [mPa·s]
303.15 K	1110	22.5
313.15 K	1103	14.9
323.15 K	1095.9	10.4
333.15 K	1088.5	7.6
343.15 K	1081.1	5.75

OCCOCCO [diethylene glycol] + O=S1(=O)CCCC1
[2], x2 = 0
Conditions	mass density [kg/m3]	viscosity [mPa·s]
303.15 K	1110	22.5
313.15 K	1103	14.9
323.15 K	1095.9	10.4
333.15 K	1088.5	7.6
343.15 K	1081.1	5.75

CC(C)O [propan-2-ol]
[1]
Conditions	mass density [kg/m3]	viscosity [mPa·s]
303.15 K	777.5	1.78
313.15 K	768.8	1.34
323.15 K	759.7	1.03
333.15 K	750	0.79
343.15 K	739.5	0.64

CC(C)O [propan-2-ol] + O=S1(=O)CCCC1
[2], x2 = 0
Conditions	mass density [kg/m3]	viscosity [mPa·s]
303.15 K	777.5	1.78
313.15 K	768.8	1.34
323.15 K	759.7	1.03
333.15 K	750	0.79
343.15 K	739.5	0.64

O=S1(=O)CCCC1 [sulfolane]
[1]
Conditions	mass density [kg/m3]	viscosity [mPa·s]
303.15 K	1262.9	10.4
313.15 K	1254.1	8.07
323.15 K	1245.2	6.45
333.15 K	1236.6	5.22
343.15 K	1228.1	4.32

O=S1(=O)CCCC1 [sulfolane] + OCCOCCOCCO
[2], x1 = 1
Conditions	mass density [kg/m3]	viscosity [mPa·s]
303.15 K	1262.9	10.4
313.15 K	1254.1	8.07
323.15 K	1245.2	6.45
333.15 K	1236.6	5.22
343.15 K	1228.1	4.32

OCCOCCOCCO [triethylene glycol]
[1]
Conditions	mass density [kg/m3]	viscosity [mPa·s]
303.15 K	1116.5	29.5
313.15 K	1108.9	19.3
323.15 K	1101.1	13.3
333.15 K	1093.4	9.58
343.15 K	1085.5	7.16
